Counter-ions that a name gives are not always drawn.
Test system: human liver cancer-derived cell line Hep3B
Assay: In vitro erythropoietin (EPO) induction activity in Hep3B cells (EPO ELISA of culture supernatant)
Type: cell-based
Conditions: test compound 12.5 μM, 32 hours at 37° C., multiple of the EPO concentration in the control (0.5% DMSO)
Procedure: In vitro erythropoietin (EPO) induction activity of test compounds was evaluated using human liver cancer-derived cell line Hep3B (ATCC, Manassas, Va.). Hep3B cells were cultured overnight at 37° C. in Dulbecco's modified Eagle's medium (DMEM) in the presence of 10% fetal bovine serum (FBS) (24-well plate, 1.0×10^5 cells/well). After replacing with fresh DMEM (+10% FBS) containing a test compound dissolved in 0.5% dimethyl sulfoxide (DMSO) (prepared to a concentration of 12.5 μM) or a solvent control (0.5% DMSO), the cells were cultured for 32 hours at 37° C. After recovering the culture supernatant, EPO concentration in the culture supernatant was quantified using human EPO ELISA kits (StemCell Technologies).
The EPO concentration using a compound of each example as a test compound was expressed as a multiple of the EPO concentration in the control.

SMILES	fold induction at 12.5 µM
O=C(O)CCC(=O)Nc1ncc(C(=O)NCc2ccc(Cl)cc2Cl)c(O)n1 [Example 1, 4-({5-[(2,4-Dichlorophenyl)methylcarbamoyl]-4-hydroxypyrimidin-2-yl}amino)-4-oxobutanoic acid]	3.6
O=C(O)CCC(=O)Nc1ncc(C(=O)NCc2ccc(F)cc2F)c(O)n1 [Example 2, 4-({5-[(2,4-Difluorophenyl)methylcarbamoyl]-4-hydroxypyrimidin-2-yl}amino)-4-oxobutanoic acid]	7.9
O=C(O)CCC(=O)Nc1ncc(C(=O)NCc2ccc(F)cc2Cl)c(O)n1 [Example 3, 4-({5-[(2-Chloro-4-fluorophenyl)methylcarbamoyl]-4-hydroxypyrimidin-2-yl}amino)-4-oxobutanoic acid]	9.5
O=C(O)CCC(=O)Nc1ncc(C(=O)NCc2ccc(F)c(-c3ccccc3)c2)c(O)n1 [Example 5, 4-({5-[(4-Fluoro-3-phenylphenyl)methylcarbamoyl]-4-hydroxypyrimidin-2-yl}amino)-4-oxobutanoic acid]	6.3
O=C(O)CCC(=O)Nc1ncc(C(=O)NCc2cccc(-c3ccccc3)c2)c(O)n1 [Example 6, 4-({4-Hydroxy-5-[(3-phenylphenyl)methylcarbamoyl]pyrimidin-2-yl}amino)-4-oxobutanoic acid]	3.7
COc1ccc(C(NC(=O)c2cnc(NC(=O)CCC(=O)O)nc2O)C2CCOCC2)cn1 (stereo not drawn) [Example 9, 4-[(4-Hydroxy-5-{[(6-methoxypyridin-3-yl)(tetrahydro-2H-pyran-4-yl)methyl]carbamoyl}pyrimidin-2-yl)amino]-4-oxobutanoic acid trifluoroacetate]	16
COc1ccc(-c2ccc(C(C)(C)NC(=O)c3cnc(NC(=O)CCC(=O)O)nc3O)cn2)cc1 [Example 10, 4-{[4-Hydroxy-5-({1-[6-(4-methoxyphenyl)pyridin-3-yl]-1-methylethyl}carbamoyl)pyrimidin-2-yl]amino}-4-oxobutanoic acid trifluoroacetate]	10
O=C(O)CCC(=O)Nc1ncc(C(=O)NCc2cccc(C(F)(F)F)c2)c(O)n1 [Example 11, 4-[(4-Hydroxy-5-{[3-(trifluoromethyl)phenyl]methylcarbamoyl}pyrimidin-2-yl)amino]-4-oxobutanoic acid]	7.5
O=C(O)CCC(=O)Nc1ncc(C(=O)NCc2cccc(F)c2)c(O)n1 [Example 12, 4-({5-[(3-Fluorophenyl)methylcarbamoyl]-4-hydroxypyrimidin-2-yl}amino)-4-oxobutanoic acid]	7.2
O=C(O)CCC(=O)Nc1ncc(C(=O)NCc2ccc(F)c(F)c2)c(O)n1 [Example 13, 4-({5-[(3,4-Difluorophenyl)methylcarbamoyl]-4-hydroxypyrimidin-2-yl}amino)-4-oxobutanoic acid]	13
Cc1cccc(CNC(=O)c2cnc(NC(=O)CCC(=O)O)nc2O)c1 [Example 14, 4-{[4-Hydroxy-5-(m-tolylmethylcarbamoyl)pyrimidin-2-yl]amino}-4-oxobutanoic acid]	3
O=C(O)CCC(=O)Nc1ncc(C(=O)NCc2cccc(C3CCCC3)c2)c(O)n1 [Example 17, 4-({5-[(3-Cyclopentylphenyl)methylcarbamoyl]-4-hydroxypyrimidin-2-yl}amino)-4-oxobutanoic acid]	4.4

From patent US9206168B2, “(2-heteroarylamino) succinic acid derivatives” (Daiichi Sankyo Company, Limited, priority 2012, dated 2015)
